Results: patent US9801844B2, “Methods and compositions for the treatment of cancer” (priority 2012, dated 2017)
pIC50: −log10 of the molar value. Where “and” joins values, the source holds several entries; their conditions need not be identical. Equal values may be shown once. Read-outs that look alike come from different tables or passages of the source.

Experiments:
[1] = system: SKOV3 (Her2 overexpressing) human ovarian cancer cells; assay: MTT cell proliferation assay on SKOV3 cells; type: cell-based; conditions: SKOV3, 96 h
Description: SKOV3 (Her2 overexpressing) ovarian cancer cells (ATCC, Manassas, Va.), were grown in McCoy's media (Gibco BRL Life Technologies, Inc., Rockville, Md.) containing 10% (v/v) fetal bovine serum (FBS) (Gibco BRL) at 37° C., 5% C02, plus Penn-Strep (Sigma).
The MTT [3-(4,5-dimethyl-2-thiazol)-2,5-diphenyl-2H tetrazolilum bromide] (Dojindo; Tokyo, Japan) cell proliferation assay system (Roche Diagnostic, Mannheim, Germany) was used to determine the sensitivity of the cell lines to agents. Cells were seeded at 1×10^4 cells/well in 96-well plates and allowed to attach for 24 h. The medium was replaced with fresh medium containing DMSO or compound. The cells were treated for 96 h, after which the media was replaced with fresh media; the cells were incubated with MTT reagents and the absorbance read at 650 and 575 nm. The 650 reading was subtracted from the 575 reading to correct for background absorbance.

[2] = system: MDA-MB-453 Her2 overexpressing human breast cancer cells; assay: MTT cell proliferation assay on MDA-MB-453 cells; type: cell-based; conditions: MDA-MB-453 cells, MTT assay; for IC50: Homo sapiens
Description: Cells were exposed to increasing concentrations of agents for 96 h and the number of viable cells determined by the MTT assay.

[3] = target: Na+-K+-ATPase; assay: Enzymatic assay of ATPase activity; type: biochemical; conditions: purified enzyme, in vitro; read-out: 50% inhibition, IC50 value, of Na+-K+-ATPase activity
Description: The enzymatic assay of ATPase (adenosine 5′-triphosphatase, EC 3.6.1.3) followed the Sigma Prod. No. A-7510 protocol (Sigma-Aldrich, St. Louis, Mo., USA). Agents (0.05 ml) were pipetted with ATPase (0.05 ml, 0.5 units/ml, Sigma-Aldrich, St. Louis, Mo., USA), mixed and equilibrated for 5 min at 37° C. Taussky-Shorr reagent (10 ml of 10% ammonium molybdate in 10 N H2SO4) was pipetted to 70 ml H2O, 5 g of ferrous sulfate heptahydrate was added, and the volume was brought to 100 ml with H2O. Test supernatant (0.5 ml) and H2O (0.5 ml) were mixed and incubated at 25° C., and the absorbance read at A660 nm.
To determine whether the Na+-K+-ATPase is involved in the mechanism of action of CA and curcumin, the ability of these agents to inhibit the in vitro activity of the purified enzyme was assayed.

[4] = system: MDA-MB-468 triple negative breast cancer cells; assay: MTT cell proliferation assay on MDA-MB-468 cells; type: cell-based, human; conditions: Homo sapiens, MDA-MB-468, MDA-MB-468 cells, MTT assay; read-out: IC50 growth inhibition
Description: MDA-MB-453 (ER negative, Her2 overexpressing), MDA-MB-468 (triple negative) and MCF7 (ER positive, Her2 low) cells, HT29 (p53 positive human colon cancer cells) (ATCC, Manassas, Va.) were grown in Dulbecco's Modified Eagle's medium (DMEM) (Gibco BRL Life Technologies, Inc., Rockville, Md.) containing 10% (v/v) fetal bovine serum (FBS) (Gibco BRL) at 37° C., 5% C02. SUM 149 (Her2 overexpressing, ER low) (the gift of Dr. R. Parsons, Columbia University Medical Center, New York, N.Y.) were cultivated in Ham's F-12 medium with 10% FBS. MCF7 and MCF7/Her2-18 (MCF7 cells transfected with a full length Her2 cDNA coding region, 45-fold increase Her2) were the kind gift of Dr. Dennis Slamon (Los Angeles, Calif.). These cells were maintained in RPMI supplemented with 10% FBS plus glutamine (1%) and PSF (1%) (Gibco, Rockville Md.).
MTT assay: the MTT {3-(4,5-dimethyl-2-thiazol)-2,5-diphenyl-2H tetrazolilum bromide} (Dojindo; Tokyo, Japan) cell proliferation assay system (Roche Diagnostic, Mannheim, Germany) was used to determine the sensitivity of the various cell lines to agents. Cells were seeded at 1×10^4 cells/well in 96-well plates and allowed to attach for 24 h. The medium was replaced with fresh medium containing DMSO or compound. The cells were treated for 96 or 120 h, after which they were incubated with MTT reagents and the absorbance read at 650 and 575 nm. For cell growth assays, the data are expressed as mean+/−standard deviation. Control and treated cells were compared using the student's t-test (p<0.05).
To determine the Combination Index (CI), cells were treated with all combinations of 4 or 5 concentrations of each of the agents tested and a solvent control. The results of the MTT assay were analyzed for possible synergistic effects using the median effect principle. Variable ratios of drugs were employees and mutually exclusive equations were assumed.

[5] = read-out: IC50, concentration that caused 50% inhibition of cell proliferation

With CC(=O)O[C@@H]1C[C@@]23C[C@@]24CC[C@H](O[C@@H]2OC[C@@H](O)[C@H](O)[C@H]2O)C(C)(C)[C@@H]4CC[C@H]3[C@]2(C)C[C@@H]3O[C@]4(C[C@@H](C)[C@@H]3[C@@]12C)O[C@H](O)[C@@]1(C)O[C@@H]41 [ACT, actein, reference compound] the “% cell proliferation” value ([1]; 5 μg/ml) was 114.4%, the “% cell proliferation” value ([1]; 10 μg/ml) was 116.1% and the “% cell proliferation” value ([1]; 15 μg/ml) was 108.0%. The “% cell proliferation” value ([1]; 20 μg/ml) was 98.1%.

With O=C(O[C@@H]1Cc2c(O)cc(O)cc2O[C@@H]1c1cc(O)c(O)c(O)c1)c1cc(O)c(O)c(O)c1 [EGCG, reference compound] the “IC50, concentration that caused 50% inhibition of cell proliferation” value [2] was ~100 µg/mL and the pIC50 [2, 5] was 3.66.

With COc1cc(/C=C/C(=O)CC(=O)/C=C/c2ccc(O)c(OC)c2)ccc1O [curcumin] the pIC50 [3] was ~5.70, the IC50 [4] was 2.3 µg/mL and 6.2 µM and the IC50 [2, 5] was 2 µg/mL and 5.4 µM.

Oc1ccc(C=Cc2cc(O)cc(O)c2)cc1 [resveratrol, reference compound] was tested, and the IC50 [2, 5] was 4 µg/mL and 17.5 µM.

For O=C(/C=C/c1ccc(O)c(O)c1)O[C@H](Cc1ccc(O)c(O)c1)C(=O)O [rosmarinic acid, reference compound], the IC50 [2, 5] was ~56 µg/mL and ~150 µM.
